These results are taken from US20260234159A1, “SMALL MOLECULE TREATMENT OF FATTY LIVER DISEASE AND HCC” (SCANDIEDGE THERAPEUTICS AB, priority 2023, published 2026).

The term viability denotes a per cent measure of how many cells are alive, often set against a control.

Read-outs that look alike come from different tables or passages of the source.

For series [1], the system named is HepG2 cells. The series is described as follows: Triglyceride (TAG) measurement assay, one week steatosis model. The series is classed as cell-based, human. Particulars: for activity at 10 µM: Homo sapiens. The protocol:
(§1) HepG2 wild type cells were purchased from genome engineering company Synthego. Cells were maintained with Roswell Park Memorial Institute growth media, RPMI, 1640 (R2405, Sigma-Aldrich) and supplemented with 10% fetal bovine serum (FBS, F7524, Sigma-Aldrich), 1% penicillin-streptomycin (P/S, P4333, Sigma-Aldrich). Steatosis induction media was prepared as high glucose Dulbecco's Modified Eagle Media (DMEM, D0819, Sigma-Aldrich) with 10% FBS, 1% P/S media supplemented with 10 μg/ml insulin (I9278, Sigma-Aldrich), and 10 μM T0901317 (T2320, Sigma-Aldrich). HepG2 cells were seeded 6×10^4 cells per well for 96-well plate and 1×10^6 cells per well for 6-well plate. HepG2 cells were incubated with steatosis induce media (SM) for one week by 3 day+2 day+2 day with total three times media exchange.
HepG2 cells were seeded at 6×10^4 cells per well into 96 well plate and induced steatosis for one week with 10 μM of target drugs. After steatosis induction, cells were washed with 200 μl of phosphate buffered saline (PBS) and triglyceride contents was measured by Triglyceride Assay Kit—Quantification (ab65336, Abcam) following manufacturer's instruction. Optical density (O.D) values were detected with microplate reader at 570 nm (Hidex Sense Beta Plus).
(§2) HepG2 cells were seeded at 60,000 cells per well in 96 well plate. Using steatosis induce media, the cells were treated with 10 μM of target drugs for one week. The media was changed 3 times at day 0, day 3 and day 5. TAG assay was performed using MAK266-1KT SDS Triglyceride Quantification Colorimetric kit and cell viability analysis was performed using MTT assay.

A short description of series [2]: MTT cell viability after one week steatosis (ranking of target molecules). Particulars: human, HepG2 cells (wild type); HepG2, 10 μM, one week steatosis induce media, MTT; Control 100.00. The series is classed as cell-based, human. The protocol:
as §1, §2

The mark [3] stands for this setting: 168 h, HepG2, 10 μM, one week steatosis induce media, Control 100.00, read-out: TAG (%).
Where [4] appears, read: HepG2, 168 h, ratio between TAG content and cell viability, Control 100.0, read-out: TAG/cell viability.

For `N#Cc1c(NC(=O)c2cccc3ccccc23)sc2c1CCCCC2` [PKL-A56, N-(3-cyano-5,6,7,8-tetrahydro-4H-cyclohepta[b]thiophen-2-yl)-1-naphthamide], the results for the activity at 10 µM in series [1] (setting [3]) and in series [1] (setting [4]) were 35.6% and 62.5%, respectively. This compound also had a viability at 1 week, 10 µM in series [2] of 57%.
For `CC(=O)N1CCc2c(sc(NC(=O)c3cccc4ccccc34)c2C#N)C1` [PKL-A114] the same measures were 14.1%, 28.6% and 49.4%.
For `CCOC(=O)CN1CCc2c(sc(NC(=O)c3cccc4ccccc34)c2C#N)C1` [PKL-A118] the same measures were 62.1%, 68.2% and 91%.
For `COc1ccc(C(=O)Nc2sc3ccccc3c2C#N)c2ccccc12` [PKL-A149] the same measures were 30.8%, 60.5% and 50.9%.
As for `COc1cccc(NC(=O)N2CCc3c(sc(NC(=O)c4cccc5ccccc45)c3C#N)C2)c1` [PKL-A151], in series [1], the “TAG content/cell viability ratio lower than JNK-IN-5A” value is listed as “more than 3 times”; the “ratio between TAG content and cell viability” value was “low ratio between TAG content and cell viability”. Besides, the activity at 10 µM in series [1] (setting [3]) stood at 11.5%. For the same compound, the activity at 10 µM in series [1] (setting [4]) was 18.7%. In addition, the viability at 1 week, 10 µM in series [2] stood at 61.6%.
As for `Cc1ccccc1NC(=O)N1CCc2c(sc(NC(=O)c3cccc4ccccc34)c2C#N)C1` [PKL-A153], the values for the activity at 10 µM in series [1] (setting [3]) and in series [1] (setting [4]) were 13.2% and 31.2%, respectively. This compound also gave a viability at 1 week, 10 µM in series [2] of 42.5%.
For `N#Cc1c(NC(=O)c2cccc3ccccc23)sc2c1CCN(C(=O)Nc1ccccc1[N+](=O)[O-])C2` [PKL-A154] the same measures were 13.9%, 30.3% and 46%.
`N#Cc1c(NC(=O)c2cccc3ccccc23)sc2c1CCN(C(=O)Nc1ccccc1Br)C2` [PKL-A157]: the activity at 10 µM in series [1] (setting [3]) was 12.8%; in series [1] (setting [4]), 35.1%. In addition, in series [2], the viability at 1 week, 10 µM was found to be 36.5%.
With `Cc1ccc(F)c(NC(=O)N2CCc3c(sc(NC(=O)c4cccc5ccccc45)c3C#N)C2)c1` [PKL-A160], the activity at 10 µM turned out to be 14.9% in series [1] (setting [3]) and 26.4% in series [1] (setting [4]). This compound also registered a viability at 1 week, 10 µM in series [2] of 56.4%.
As to `N#Cc1c(NC(=O)c2cccc3ccccc23)sc2c1CCN(C(=O)Nc1cccc3ccccc13)C2` [PKL-A161], the activity at 10 µM is 13.2% in series [1] (setting [3]) and 29.8% in series [1] (setting [4]). The compound also had a viability at 1 week, 10 µM in series [2] of 44.1%.
In the case of `CN(C(=O)N1CCc2c(sc(NC(=O)c3cccc4ccccc34)c2C#N)C1)c1ccccc1` [PKL-A162], the “ratio between TAG content and cell viability” value in series [1] is “low ratio between TAG content and cell viability”. Further, the activity at 10 µM came to 12.3% in series [1] (setting [3]) and 25.1% in series [1] (setting [4]). In addition, in series [1] (ratio as printed in text with %), the TAG/cell viability was determined as 25.1%. The viability at 1 week, 10 µM in series [2] came out at 49.2%.
For the compound `CCN(C)C(=O)N1CCc2c(sc(NC(=O)c3cccc4ccccc34)c2C#N)C1` [PKL-A163], the activity at 10 µM in series [1] (setting [3]) turned out to be 12.7%; in series [1] (setting [4]) it was 27.2%. The same compound had a viability at 1 week, 10 µM in series [2] of 46.6%.
Regarding `N#Cc1c(NC(=O)c2cccc3ccccc23)sc2c1CCN(C(=O)N(c1ccccc1)c1ccccc1)C2` [PKL-A164], the values for the activity at 10 µM in series [1] (setting [3]) and in series [1] (setting [4]) were 17.3% and 37.6%, respectively. Besides, the viability at 1 week, 10 µM in series [2] was found to be 46%.
On to `COc1ccc(S(=O)(=O)N2CCc3c(sc(NC(=O)c4cccc5ccccc45)c3C#N)C2)cc1OC` [PKL-A179], for which the activity at 10 µM in series [1] (setting [3]) was found to be 34.7%; in series [1] (setting [4]) it was 52.2%. The compound also had a viability at 1 week, 10 µM in series [2] of 66.5%.
Take `N#Cc1c(NC(=O)c2cccc3ccccc23)sc2c1CCN(S(=O)(=O)c1cccc3ccccc13)C2` [PKL-A183]: the results for the activity at 10 µM in series [1] (setting [3]) and in series [1] (setting [4]) were 48.6% and 67.2%, respectively. Besides, the viability at 1 week, 10 µM in series [2] was 72.3%.
For `C=CC(=O)N1CCc2c(sc(NC(=O)c3cccc4ccccc34)c2C#N)C1` [PKL-A190] the same measures were 24.2%, 31.8% and 76.2%.
Turning to `N#Cc1c(NC(=O)c2cccc3ccccc23)sc2c1CCN(C(=O)c1cccc(F)c1)C2` [PKL-A192], the activity at 10 µM in series [1] (setting [3]) is 22.9%; in series [1] (setting [4]) it was 38%. For the same compound, the viability at 1 week, 10 µM in series [2] turned out to be 60.1%.
For `N#Cc1ccc(C(=O)N2CCc3c(sc(NC(=O)c4cccc5ccccc45)c3C#N)C2)cc1` [PKL-A193], the activity at 10 µM amounted to 23.4% in series [1] (setting [3]) and 37.6% in series [1] (setting [4]). This compound showed a viability at 1 week, 10 µM in series [2] of 62.3%.
For `C=CCN1CCc2c(sc(NC(=O)c3cccc4ccccc34)c2C#N)C1` [PKL-B129] the same measures were 35.5%, 49.9% and 71.2%.
The like results for `N#Cc1c(NC(=O)c2cccc3ccccc23)sc2c1CCN(CC(=O)c1ccccc1)C2` [PKL-B130] were, in that order, 16.8%, 26.2% and 64.1%.
For `CC(C)CCN1CCc2c(sc(NC(=O)c3cccc4ccccc34)c2C#N)C1` [PKL-B133] the same measures were 28.1%, 40.6% and 69.3%.
In the case of `N#Cc1c(NC(=O)c2cccc3ccccc23)sc2c1CCN(CCn1cnc3ccccc31)C2` [PKL-B153, N-(6-(2-(1H-benzo[d]imidazol-1-yl)ethyl)-3-cyano-4,5,6,7-tetrahydrothieno[2,3c]pyridin-2-yl)-1-naphthamide], the activity at 10 µM was 34.3% in series [1] (setting [3]) and 46.4% in series [1] (setting [4]). This compound also gave a viability at 1 week, 10 µM in series [2] of 74%.
For the compound `N#Cc1c(NC(=O)c2cccc3ccccc23)sc2c1CCN(CC(=O)NC1CCOCC1)C2` [PKL-B164], the activity at 10 µM in series [1] (setting [3]) turned out to be 36.8%; in series [1] (setting [4]), 49.6%. Besides, in series [2], the viability at 1 week, 10 µM amounted to 74.1%.
For `C#Cc1cccc(NC(=O)CN2CCc3c(sc(NC(=O)c4cccc5ccccc45)c3C#N)C2)c1` [PKL-B170] the same measures were 55.6%, 84.2% and 66%.
For `N#Cc1c(NC(=O)c2cccc3ccccc23)sc2c1CCN(CC(=O)Nc1ccccc1)C2` [PKL-B173] the same measures were 34.7%, 49% and 70.8%.
